Reference: the supplement of paper PMC4862054

The molecules below were run on CAL-148 (assay: normalised viability (% of control), CellTiter-Blue; higher = more viable cells (about 100 = DMSO control)). Settings: incubation time: 72 h.
How it was run: (§1)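 After 72 h on compound-loaded 384-well plates, breast cancer cell lines received 2.5 µl CellTiter-Blue reagent for 2 h at 37 °C. Fluorescence at 560/590 nm was scaled per plate so that vehicle was 100 and a positive kill control was 0. The value stands for normalised viability at a single listed concentration of the series.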

Point of comparison: `COc1cc2c(N3CCN(C(=O)Nc4ccc(OC(C)C)cc4)CC3)ncnc2cc1OCCCN1CCCCC1` [Tandutinib] (1000 nM), normalised viability 71.1%. Against it:
- NC1(c2ccc(-c3nc4ccn5c(=O)[nH]nc5c4cc3-c3ccccc3)cc2)CCC1 [MK-2206] (1000 nM) — lower, 36.8%
- O=C(c1cc(Cc2n[nH]c(=O)c3ccccc23)ccc1F)N1CCN(C(=O)C2CC2)CC1 [Olaparib] (10000 nM) — lower, 56.1%
- C[C@@H](C(=O)O)c1ccc(-c2ccccc2)c(F)c1 [Tarenflurbil] (10000 nM) — higher, 89.9%

What follows are molecules tested on CAL-51 in the same assay as above. Settings: incubation time: 72 h.
How it was run: as §1

Point of comparison: `COc1cc2c(N3CCN(C(=O)Nc4ccc(OC(C)C)cc4)CC3)ncnc2cc1OCCCN1CCCCC1` [Tandutinib] (1000 nM), normalised viability 58%. Against it:
- NC1(c2ccc(-c3nc4ccn5c(=O)[nH]nc5c4cc3-c3ccccc3)cc2)CCC1 [MK-2206] (1000 nM) — lower, 45.3%
- O=C(c1cc(Cc2n[nH]c(=O)c3ccccc23)ccc1F)N1CCN(C(=O)C2CC2)CC1 [Olaparib] (10000 nM) — lower, 39.3%
- C[C@@H](C(=O)O)c1ccc(-c2ccccc2)c(F)c1 [Tarenflurbil] (10000 nM) — higher, 111%

Each molecule was assayed on CAL-85-1 in the same assay as above. Settings: incubation time: 72 h.
How it was run: as §1

Point of comparison: `COc1cc2c(N3CCN(C(=O)Nc4ccc(OC(C)C)cc4)CC3)ncnc2cc1OCCCN1CCCCC1` [Tandutinib] (1000 nM), normalised viability 93%. Against it:
- NC1(c2ccc(-c3nc4ccn5c(=O)[nH]nc5c4cc3-c3ccccc3)cc2)CCC1 [MK-2206] (1000 nM) — lower, 58.4%
- O=C(c1cc(Cc2n[nH]c(=O)c3ccccc23)ccc1F)N1CCN(C(=O)C2CC2)CC1 [Olaparib] (10000 nM) — lower, 80.7%
- C[C@@H](C(=O)O)c1ccc(-c2ccccc2)c(F)c1 [Tarenflurbil] (10000 nM) — lower, 91.4%

The molecules below were run on DU-4475 in the same assay as above. Settings: incubation time: 72 h.
How it was run: as §1

Point of comparison: `O=C(c1cc(Cc2n[nH]c(=O)c3ccccc23)ccc1F)N1CCN(C(=O)C2CC2)CC1` [Olaparib] (10000 nM), normalised viability 71.7%. Against it:
- NC1(c2ccc(-c3nc4ccn5c(=O)[nH]nc5c4cc3-c3ccccc3)cc2)CCC1 [MK-2206] (1000 nM) — lower, 53.5%
- COc1cc2c(N3CCN(C(=O)Nc4ccc(OC(C)C)cc4)CC3)ncnc2cc1OCCCN1CCCCC1 [Tandutinib] (1000 nM) — lower, 58.4%
- C[C@@H](C(=O)O)c1ccc(-c2ccccc2)c(F)c1 [Tarenflurbil] (10000 nM) — higher, 95.1%

The molecules below were run on HDQ-P1 in the same assay as above. Settings: incubation time: 72 h.
How it was run: as §1

Point of comparison: `NC1(c2ccc(-c3nc4ccn5c(=O)[nH]nc5c4cc3-c3ccccc3)cc2)CCC1` [MK-2206] (1000 nM), normalised viability 86.4%. Against it:
- O=C(c1cc(Cc2n[nH]c(=O)c3ccccc23)ccc1F)N1CCN(C(=O)C2CC2)CC1 [Olaparib] (10000 nM) — higher, 96.5%
- COc1cc2c(N3CCN(C(=O)Nc4ccc(OC(C)C)cc4)CC3)ncnc2cc1OCCCN1CCCCC1 [Tandutinib] (1000 nM) — higher, 128%
- C[C@@H](C(=O)O)c1ccc(-c2ccccc2)c(F)c1 [Tarenflurbil] (10000 nM) — higher, 129%

These molecules were tested on MDA-MB-453 in the same assay as above. Settings: incubation time: 72 h.
How it was run: as §1

Point of comparison: `NC1(c2ccc(-c3nc4ccn5c(=O)[nH]nc5c4cc3-c3ccccc3)cc2)CCC1` [MK-2206] (1000 nM), normalised viability 11%. Against it:
- O=C(c1cc(Cc2n[nH]c(=O)c3ccccc23)ccc1F)N1CCN(C(=O)C2CC2)CC1 [Olaparib] (10000 nM) — higher, 78.1%
- COc1cc2c(N3CCN(C(=O)Nc4ccc(OC(C)C)cc4)CC3)ncnc2cc1OCCCN1CCCCC1 [Tandutinib] (1000 nM) — higher, 92.9%
- C[C@@H](C(=O)O)c1ccc(-c2ccccc2)c(F)c1 [Tarenflurbil] (10000 nM) — higher, 84%

The molecules below were run on CAL-148 (assay: normalised response (% of control), CellTox Green; higher = less cell death (100 = DMSO, 0 = benzethonium chloride kill control)). Settings: incubation time: 72 h.
How it was run: (§2)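 Two readouts were taken after 72 h: CellTox Green fluorescence (485/520 nm) first, then CellTiter-Glo luminescence after 10 min at room temperature. Breast cancer cell lines had been seeded as 20 µl suspension into 384-well plates holding compound at 5 concentrations in 10-fold steps across a compound-specific 10,000-fold range. Each value is a normalised signal at a single concentration, with plates scaled to 0.1 % DMSO (100) and a positive kill control (0).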

Point of comparison: `NC1(c2ccc(-c3nc4ccn5c(=O)[nH]nc5c4cc3-c3ccccc3)cc2)CCC1` [MK-2206] (1000 nM), normalised response 11.1%. Against it:
- O=C(c1cc(Cc2n[nH]c(=O)c3ccccc23)ccc1F)N1CCN(C(=O)C2CC2)CC1 [Olaparib] (10000 nM) — higher, 75.3%
- COc1cc2c(N3CCN(C(=O)Nc4ccc(OC(C)C)cc4)CC3)ncnc2cc1OCCCN1CCCCC1 [Tandutinib] (1000 nM) — higher, 93.5%
- C[C@@H](C(=O)O)c1ccc(-c2ccccc2)c(F)c1 [Tarenflurbil] (10000 nM) — higher, 101%

Each molecule was assayed on MCF-10A in the same assay as above. Settings: incubation time: 72 h.
How it was run: as §2

Point of comparison: `NC1(c2ccc(-c3nc4ccn5c(=O)[nH]nc5c4cc3-c3ccccc3)cc2)CCC1` [MK-2206] (1000 nM), normalised response 104%. Against it:
- O=C(c1cc(Cc2n[nH]c(=O)c3ccccc23)ccc1F)N1CCN(C(=O)C2CC2)CC1 [Olaparib] (10000 nM) — lower, 94.8%
- COc1cc2c(N3CCN(C(=O)Nc4ccc(OC(C)C)cc4)CC3)ncnc2cc1OCCCN1CCCCC1 [Tandutinib] (1000 nM) — lower, 93.5%

Each molecule was assayed on MDA-MB-231 in the same assay as above. Settings: incubation time: 72 h.
How it was run: as §2

Point of comparison: `O=C(c1cc(Cc2n[nH]c(=O)c3ccccc23)ccc1F)N1CCN(C(=O)C2CC2)CC1` [Olaparib] (10000 nM), normalised response 35.9%. Against it:
- NC1(c2ccc(-c3nc4ccn5c(=O)[nH]nc5c4cc3-c3ccccc3)cc2)CCC1 [MK-2206] (1000 nM) — higher, 106%
- COc1cc2c(N3CCN(C(=O)Nc4ccc(OC(C)C)cc4)CC3)ncnc2cc1OCCCN1CCCCC1 [Tandutinib] (1000 nM) — higher, 99.1%
- C[C@@H](C(=O)O)c1ccc(-c2ccccc2)c(F)c1 [Tarenflurbil] (10000 nM) — higher, 99.9%

Each molecule was assayed on MDA-MB-468 in the same assay as above. Settings: incubation time: 72 h.
How it was run: as §2

Point of comparison: `COc1cc2c(N3CCN(C(=O)Nc4ccc(OC(C)C)cc4)CC3)ncnc2cc1OCCCN1CCCCC1` [Tandutinib] (1000 nM), normalised response 120%. Against it:
- NC1(c2ccc(-c3nc4ccn5c(=O)[nH]nc5c4cc3-c3ccccc3)cc2)CCC1 [MK-2206] (1000 nM) — higher, 147%
- O=C(c1cc(Cc2n[nH]c(=O)c3ccccc23)ccc1F)N1CCN(C(=O)C2CC2)CC1 [Olaparib] (10000 nM) — lower, 112%
- C[C@@H](C(=O)O)c1ccc(-c2ccccc2)c(F)c1 [Tarenflurbil] (10000 nM) — higher, 153%

The molecules below were run on BT-474 (assay: normalised response (% of control), CellTiter-Glo; higher = more viable cells (100 = DMSO, 0 = benzethonium chloride kill control)). Settings: incubation time: 72 h.
How it was run: as §2

Point of comparison: `NC1(c2ccc(-c3nc4ccn5c(=O)[nH]nc5c4cc3-c3ccccc3)cc2)CCC1` [MK-2206] (1000 nM), normalised response 95.4%. Against it:
- O=C(c1cc(Cc2n[nH]c(=O)c3ccccc23)ccc1F)N1CCN(C(=O)C2CC2)CC1 [Olaparib] (10000 nM) — lower, 67.5%
- COc1cc2c(N3CCN(C(=O)Nc4ccc(OC(C)C)cc4)CC3)ncnc2cc1OCCCN1CCCCC1 [Tandutinib] (1000 nM) — higher, 97.7%
- C[C@@H](C(=O)O)c1ccc(-c2ccccc2)c(F)c1 [Tarenflurbil] (10000 nM) — lower, 95.2%

The molecules below were run on BT-549 in the same assay as above. Settings: incubation time: 72 h.
How it was run: as §2

Point of comparison: `COc1cc2c(N3CCN(C(=O)Nc4ccc(OC(C)C)cc4)CC3)ncnc2cc1OCCCN1CCCCC1` [Tandutinib] (1000 nM), normalised response 102%. Against it:
- NC1(c2ccc(-c3nc4ccn5c(=O)[nH]nc5c4cc3-c3ccccc3)cc2)CCC1 [MK-2206] (1000 nM) — lower, 69.3%
- O=C(c1cc(Cc2n[nH]c(=O)c3ccccc23)ccc1F)N1CCN(C(=O)C2CC2)CC1 [Olaparib] (10000 nM) — lower, 78.1%
- C[C@@H](C(=O)O)c1ccc(-c2ccccc2)c(F)c1 [Tarenflurbil] (10000 nM) — lower, 99%

The molecules below were run on CAL-120 in the same assay as above. Settings: incubation time: 72 h.
How it was run: as §2

Point of comparison: `COc1cc2c(N3CCN(C(=O)Nc4ccc(OC(C)C)cc4)CC3)ncnc2cc1OCCCN1CCCCC1` [Tandutinib] (1000 nM), normalised response 106%. Against it:
- NC1(c2ccc(-c3nc4ccn5c(=O)[nH]nc5c4cc3-c3ccccc3)cc2)CCC1 [MK-2206] (1000 nM) — lower, 92.5%
- O=C(c1cc(Cc2n[nH]c(=O)c3ccccc23)ccc1F)N1CCN(C(=O)C2CC2)CC1 [Olaparib] (10000 nM) — lower, 82.3%
- C[C@@H](C(=O)O)c1ccc(-c2ccccc2)c(F)c1 [Tarenflurbil] (10000 nM) — lower, 104%

These molecules were tested on CAL-148 in the same assay as above. Settings: incubation time: 72 h.
How it was run: as §2

Point of comparison: `NC1(c2ccc(-c3nc4ccn5c(=O)[nH]nc5c4cc3-c3ccccc3)cc2)CCC1` [MK-2206] (1000 nM), normalised response 59.7%. Against it:
- O=C(c1cc(Cc2n[nH]c(=O)c3ccccc23)ccc1F)N1CCN(C(=O)C2CC2)CC1 [Olaparib] (10000 nM) — higher, 64.6%
- COc1cc2c(N3CCN(C(=O)Nc4ccc(OC(C)C)cc4)CC3)ncnc2cc1OCCCN1CCCCC1 [Tandutinib] (1000 nM) — higher, 97.8%
- C[C@@H](C(=O)O)c1ccc(-c2ccccc2)c(F)c1 [Tarenflurbil] (10000 nM) — higher, 88.3%

What follows are molecules tested on CAL-51 in the same assay as above. Settings: incubation time: 72 h.
How it was run: as §2

Point of comparison: `NC1(c2ccc(-c3nc4ccn5c(=O)[nH]nc5c4cc3-c3ccccc3)cc2)CCC1` [MK-2206] (1000 nM), normalised response 84.2%. Against it:
- O=C(c1cc(Cc2n[nH]c(=O)c3ccccc23)ccc1F)N1CCN(C(=O)C2CC2)CC1 [Olaparib] (10000 nM) — lower, 66.1%
